Results published in patent US11224601B1, “Compounds that inhibits MCL-1 protein” (priority 2017, dated 2022).
pIC50: −log10 of the molar value. Like-named read-outs stand apart in the source and are kept apart here.

Assays:
[1] = system: OPM-2 human multiple myeloma cell line; test: Cell Viability Assay (OPM-2 10 FBS), CellTiter-Glo; type: cell-based; settings: for IC50: read-out: OPM-2 10% FBS IC50 IP (μM), OPM-2 cells, 10% FBS, 16 h, CellTiter-Glo
Procedure: Cell Viability Assay (OPM-2 10 FBS)
The human multiple myeloma cell line, OPM-2, was cultured in complete growth medium containing RPMI 1640 and 10% fetal bovine serum (FBS). Cells were seeded into 384-well plates at 3000 cells/well density in complete growth medium containing 10% FBS, and incubated for 16 h with serially diluted test compounds in a 37° C. incubator with 5% CO2. Cell viability was tested using CellTiter-Glo® assay (Promega, Madison, Wis.) according to the manufacturer recommendations. Luminescence was determined using an EnVision® Multilabel plate reader 25 min after the addition of detection reagent. IC50 values were then calculated with Xlfit using a logistical 4-parameter fit model in GraphPad Prism (GraphPad Software, San Diego, Calif.) or in Genedata Screener® (Genedata, Basel, Switzerland).

OPM-2 Luc cells = test: Tumor Pharmacodynamics (PD) model; type: in vivo; settings: dosed orally to female athymic nude mice inoculated with OPM-2 Luc cells; compared with Reference Compound 1
Excerpt: Tumor Pharmacodynamics (PD)
FIGS. 1-7 illustrate the PD results of the cited Examples. The Reference Compound 1, an internal Amgen MC1-1 inhibitor compound made by one of the general schemes outlined in U.S. Pat. No. 9,562,061, herein incorporated by reference, is (1S,3′R,6′R,7′S,8′E,12′R)-6-chloro-12′-ethyl-7′-methoxy-3,4-dihydro-2H,15′H-spiro[naphthalene-1,22′-[20]oxa[13]thia[1,14]diazatetracyclo[14.7.2.0˜3,6˜.0˜19,24˜]pentacosa[8,16,18,24]tetraen]-15′-one 13′,13′-dioxide

[2] = molecular target: recombinant human Mcl-1 (Mcl-1/Bim interaction) (Homo sapiens (Human), UniProt Q07820); test: biochemical; type: binding; settings: cell free Mcl-1:Bim TR-FRET
Chain of recombinant human Mcl-1 (Mcl-1/Bim interaction) (Q07820 171-327): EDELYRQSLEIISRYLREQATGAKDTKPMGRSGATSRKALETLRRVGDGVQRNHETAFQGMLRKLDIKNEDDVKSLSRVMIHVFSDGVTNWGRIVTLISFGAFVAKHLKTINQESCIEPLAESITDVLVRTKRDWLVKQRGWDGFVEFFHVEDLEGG
Procedure: Cell free Mcl-1:Bim Affinity Assay (Mcl-1 HTRF)
The inhibition of the Mcl-1/Bim interaction was measured using a time-resolved fluorescence resonance energy transfer (TR-FRET) assay. The recombinant human Mcl-1 (C-terminally 6×His tagged Mcl-1 containing residues 171-327) was generated at Amgen Inc (Thousand Oaks, Calif.). A biotinylated peptide derived from human Bim (residues 51-76) was purchased from CPC Scientific (San Jose, Calif.). The TR-FRET assay was conducted in a 384-well white OptiPlate™ (PerkinElmer, Waltham, Mass.) in a total volume of 40 μL. The reaction mixture contained 0.1 nM Mcl-1(171-327), 0.05 nM biotin-Bim(51-76), 0.05 nM LANCE® Eu-W1024 Anti-6×His (PerkinElmer), 0.072 nM Streptavidin-Xlent (Cisbio, Bedford, Mass.), and serially diluted test compounds in the binding buffer of 20 mM Hepes, pH 7.5, 150 mM NaCl, 0.016 mM Brij® 35, and 1 mM dithiothreitol. Test compounds were pre-incubated with Mcl-1(171-327) and biotin-Bim (51-76) for 60 min before addition of the detection mixture (LANCE® Eu-W1024 Anti-6×His and Streptavidin-Xlent). The reaction plates were further incubated overnight and then were read on an Envision® multimode reader (PerkinElmer). Fluorescence signals were measured at 620 nm (40-nm bandwidth) and 665 nm (7.5-nm bandwidth) with a 60 μs delay after excitation at 320 nm (75-nm bandwidth). The signal ratio at 665/620 nm corresponded to the Mcl-1/Bim interaction and was used in all data analyses. The IC50 values of test compounds were determined from duplicate data by analyzing competition curves using a four-parameter sigmoidal model in GraphPad Prism (GraphPad Software, San Diego, Calif.) or in Genedata Screener® (Genedata, Basel, Switzerland).

`CO[C@]1(CN2CCN3CCOC[C@@H]3C2)/C=C/C[C@H](C)[C@@H](C)S(=O)(=O)NC(=O)c2ccc3c(c2)N(C[C@@H]2CC[C@H]21)C[C@@]1(CCCc2cc(Cl)ccc21)CO3` [Example 4, (1S,3′R,6′R,7′R,8′E,11′S,12′R)-6-chloro-7′-((9aS)-hexahydropyrazino[2,1-c][1,4]oxazin-8(1H)-ylmethyl)-7′-methoxy-11′,12′-dimethyl-3,4-dihydro-2H,15′H-spiro[naphthalene-1,22′-[20]oxa[13]thia[1,14]diazatetracyclo[14.7.2.0˜3,6˜.0˜19,24˜]pentacosa[8,16,18,24]tetraen]-15′-one 13′,13′-dioxide] was tested. Which IC50 ([1]; Homo sapiens, OPM-2, 16 h) did it give?
The IC50 was 0.094 µM.

What about the “in vivo efficacy in a tumor PD model relative to Reference Compound 1” value (OPM-2 Luc cells) of the same compound?
Its value is “superior in vivo efficacy”.

What does the source list for `CO[C@]1(CN2CCN(C3COC3)CC2)/C=C/C[C@H](C)[C@@H](C)S(=O)(=O)NC(=O)c2ccc3c(c2)N(C[C@@H]2CC[C@H]21)C[C@@]1(CCCc2cc(Cl)ccc21)CO3` [Example 3, (1S,3′R,6′R,7′R,8′E,11′S,12′R)-6-chloro-7′-methoxy-11′,12′-dimethyl-7′-((4-(3-oxetanyl)-1-piperazinyl)methyl)-3,4-dihydro-2H,15′H-spiro[naphthalene-1,22′-[20]oxa[13]thia[1,14]diazatetracyclo[14.7.2.0˜3,6˜.0˜19,24˜]pentacosa[8,16,18,24]tetraen]-15′-one 13′,13′-dioxide]?
IC50 ([1]; Homo sapiens, OPM-2, 16 h): 0.06 µM; in vivo efficacy in a tumor PD model relative to Reference Compound 1 (OPM-2 Luc cells): superior in vivo efficacy

What does the source list for `CO[C@]1(CN2CCN3CCCC[C@@H]3C2)/C=C/C[C@H](C)[C@@H](CCN(C)C)S(=O)(=O)NC(=O)c2ccc3c(c2)N(C[C@@H]2CC[C@H]21)C[C@@]1(CCCc2cc(Cl)ccc21)CO3` [Example 367, (1S,3′R,6′R,7′R,8′E,11′S,12′R)-6-chloro-12′-(2-(dimethylamino)ethyl)-7′-methoxy-11′-methyl-7′-((9aR)-octahydro-2H-pyrido[1,2-a]pyrazin-2-ylmethyl)-3,4-dihydro-2H,15′H-spiro[naphthalene-1,22′-[20]oxa[13]thia[1,14]diazatetracyclo[14.7.2.0˜3,6˜.0˜19,24˜]pentacosa[8,16,18,24]tetraen]-15′-one 13′,13′-dioxide]?
IC50 ([1]; Homo sapiens, OPM-2, 16 h): 0.273 µM; pIC50 ([2]; read-out: Mcl-1 HTRF IC50): 9.70

With `CO[C@@]1(C(=O)N(C)C)/C=C/C[C@H](C)[C@@H](C)S(=O)(=O)NC(=O)c2ccc3c(c2)N(C[C@@H]2CC[C@H]21)C[C@@]1(CCCc2cc(Cl)ccc21)CO3` [Example 176, (1S,3′R,6′R,7′S,8′E,11′S,12′R)-6-chloro-7′-methoxy-N,N,11′,12′-tetramethyl-15′-oxo-3,4-dihydro-2H-spiro[naphthalene-1,22′-[20]oxa[13]thia[1,14]diazatetracyclo[14.7.2.0˜3,6˜.0˜19,24˜]pentacosa[8,16,18,24]tetraene]-7′-carboxamide 13′,13′-dioxide] as the compound, how does the IC50 ([1]; Homo sapiens, OPM-2, 16 h) read?
Its IC50 is 0.149 µM.

What about the pIC50 ([2]; read-out: Mcl-1 HTRF IC50) of the same compound?
The pIC50 was 9.93.

`CO[C@]1(CN2CCN3CC[C@H](F)C[C@@H]3C2)/C=C/C[C@H](C)[C@@H](C)S(=O)(=O)NC(=O)c2ccc3c(c2)N(C[C@@H]2CC[C@H]21)C[C@@]1(CCCc2cc(Cl)ccc21)CO3` (stereo in doubt) [Example 293] was tested. Which pIC50 ([1]; read-out: OPM-2 10% FBS IC50 IP, OPM-2 cells, 10% FBS, 16 h, CellTiter-Glo) did it give?
Its pIC50 is 6.68.

And the pIC50 ([2]; read-out: Mcl-1 HTRF IC50)?
The pIC50 was 9.62.

Which IC50 ([1]; Homo sapiens, OPM-2, 16 h) does the source give for `COCCO[C@@]1(CN2CCN3CCCC[C@@H]3C2)/C=C/C[C@H](C)[C@@H](C)S(=O)(=O)NC(=O)c2ccc3c(c2)N(C[C@@H]2CC[C@H]21)C[C@@]1(CCCc2cc(Cl)ccc21)CO3` [Example 151, (1S,3′R,6′R,7′S,8′E,11′S,12′R)-6-chloro-7′-(2-methoxyethoxy)-11′,12′-dimethyl-7′-((9aR)-octahydro-2H-pyrido[1,2-a]pyrazin-2-ylmethyl)-3,4-dihydro-2H,15′H-spiro[naphthalene-1,22′-[20]oxa[13]thia[1,14]diazatetracyclo[14.7.2.0˜3,6˜.0˜19,24˜]pentacosa[8,16,18,24]tetraen]-15′-one 13′,13′-dioxide] here?
The IC50 was 0.462 µM.

And the pIC50 ([2]; read-out: Mcl-1 HTRF IC50)?
The pIC50 was 9.07.

With `CO[C@@]1(C#CCCc2ccncn2)/C=C/C[C@H](C)[C@@H](C)S(=O)(=O)NC(=O)c2ccc3c(c2)N(C[C@@H]2CC[C@H]21)C[C@@]1(CCCc2cc(Cl)ccc21)CO3` [Example 100519, (1S,3′R,6′R,7′S,8′E,11′S,12′R)-6-chloro-7′-methoxy-11′,12′-dimethyl-7′-(4-(4-pyrimidinyl)-1-butyn-1-yl)-3,4-dihydro-2H,15′H-spiro[naphthalene-1,22′-[20]oxa[13]thia[1,14]diazatetracyclo [14.7.2.0~3,6~.0~19,24~]pentacosa[8,16,18,24]tetraen]-15′-one 13′,13′-dioxide] as the compound, how does the pIC50 ([1]; Homo sapiens, OPM-2, 16 h, read-out: OPM-2 10% FBS IC50 IP, OPM-2 cells, 10% FBS, 16 h, CellTiter-Glo) read?
Its pIC50 is 6.86.

And the pIC50 ([2]; read-out: Mel-1 HTRF IC50)?
Its pIC50 is 9.76.

`CO[C@@]1(CN2CCN3CCC[C@@H]3C2)/C=C/C[C@H](C)[C@@H](C)S(=O)(=O)NC(=O)c2ccc3c(c2)N(C[C@@H]2CC[C@H]21)C[C@@]1(CCCc2cc(Cl)ccc21)CO3` (stereo in doubt) [Example 80] was tested. Which IC50 ([1]; Homo sapiens, OPM-2, 16 h) did it give?
Its IC50 is 0.205 µM.

What about the pIC50 ([2]; read-out: Mcl-1 HTRF IC50) of the same compound?
The pIC50 was 8.81.

With `CO[C@@]1(CN2CCN3CCN(C)CC3C2)/C=C/C[C@H](C)[C@@H](C)S(=O)(=O)NC(=O)c2ccc3c(c2)N(C[C@@H]2CC[C@H]21)C[C@@]1(CCCc2cc(Cl)ccc21)CO3` (single isomer, unassigned) [Example 216] as the compound, how does the IC50 ([1]; Homo sapiens, OPM-2, 16 h) read?
Its IC50 is 0.183 µM.

And the pIC50 ([2]; read-out: Mcl-1 HTRF IC50)?
The pIC50 was 9.31.

For `CO[C@]1(CN2CCN3CCN(C(C)=O)C[C@@H]3C2)/C=C/C[C@H](C)[C@@H](C)S(=O)(=O)NC(=O)c2ccc3c(c2)N(C[C@@H]2CC[C@H]21)C[C@@]1(CCCc2cc(Cl)ccc21)CO3` (stereo in doubt) [Example 218], which IC50 ([1]; Homo sapiens, OPM-2, 16 h) is on record?
The IC50 was 0.092 µM.

And the pIC50 ([2]; read-out: Mcl-1 HTRF IC50)?
The pIC50 was 9.85.

With `CCO[C@]1(CN2CCN(C(C)C)[C@H](C)C2)/C=C/C[C@H](C)[C@@H](C)S(=O)(=O)NC(=O)c2ccc3c(c2)N(C[C@@H]2CC[C@H]21)C[C@@]1(CCCc2cc(Cl)ccc21)CO3` [Example 9, (1S,3′R,6′R,7′R,8′E,11′S,12′R)-6-chloro-7′-ethoxy-11′,12′-dimethyl-7′-(((3R)-3-methyl-4-(1-methylethyl)-1-piperazinyl)methyl)-3,4-dihydro-2H,15′H-spiro[naphthalene-1,22′-[20]oxa[13]thia[1,14]diazatetracyclo[14.7.2.0˜3,6˜.0˜19,24˜]pentacosa[8,16,18,24]tetraen]-15′-one 13′,13′-dioxide] as the compound, how does the IC50 ([1]; Homo sapiens, OPM-2, 16 h) read?
The IC50 was 0.05 µM.

What about the pIC50 ([2]; read-out: Mcl-1 HTRF IC50) of the same compound?
The pIC50 was 10.11.

Which IC50 ([1]; Homo sapiens, OPM-2, 16 h) does the source give for `CO[C@]1(C(=O)N(C)C)/C=C/C[C@H](C)[C@@H](C)S(=O)(=O)NC(=O)c2ccc3c(c2)N(C[C@@H]2CC[C@H]21)C[C@@]1(CCCc2cc(Cl)ccc21)CO3` [Example 177, (1S,3′R,6′R,7′R,8′E,11′S,12′R)-6-chloro-7′-methoxy-N,N,11′,12′-tetramethyl-15′-oxo-3,4-dihydro-2H-spiro[naphthalene-1,22′-[20]oxa[13]thia[1,14]diazatetracyclo[14.7.2.0˜3,6˜.0˜19,24˜]pentacosa[8,16,18,24]tetraene]-7′-carboxamide 13′,13′-dioxide] here?
Its IC50 is 0.615 µM.

What about the pIC50 ([2]; read-out: Mcl-1 HTRF IC50) of the same compound?
Its pIC50 is 9.82.

How did the IC50 ([1]; Homo sapiens, OPM-2, 16 h) turn out when `C[C@@H]1[C@@H](C)C/C=C/[C@@](O)(CN2CCN3CCOC[C@@H]3C2)[C@@H]2CC[C@H]2CN2C[C@@]3(CCCc4cc(Cl)ccc43)COc3ccc(cc32)C(=O)NS1(=O)=O` [Example 193, (1S,3′R,6′R,7′S,8′E,11′S,12′R)-6-chloro-7′-((9aS)-hexahydropyrazino[2,1-c][1,4]oxazin-8(1H)-ylmethyl)-7′-hydroxy-11′,12′-dimethyl-3,4-dihydro-2H,15′H-spiro[naphthalene-1,22′-[20]oxa[13]thia[1,14]diazatetracyclo[14.7.2.0˜3,6˜.0˜19,24˜]pentacosa[8,16,18,24]tetraen]-15′-one 13′,13′-dioxide] was run?
Its IC50 is 0.023 µM.

And the pIC50 ([2]; read-out: Mcl-1 HTRF IC50)?
Its pIC50 is 10.02.
